Where a name gives a salt, the structure may show the parent alone. Read-outs that look alike come from different tables or passages of the source.

The text below walks through data of US6784181B2, “Piperazine-containing compounds useful in the treatment of pain” (AstraZeneca AB, priority 1999, dated 2004).

Series [1] deals with T1, cloned human δ receptors (HDELTA) (Homo sapiens, UniProt P41143).
T1 construct: expressed in transfected cells; host or cells: human 293S cells (geneticin-selected), membranes
T1 sequence (P41143 whole entry): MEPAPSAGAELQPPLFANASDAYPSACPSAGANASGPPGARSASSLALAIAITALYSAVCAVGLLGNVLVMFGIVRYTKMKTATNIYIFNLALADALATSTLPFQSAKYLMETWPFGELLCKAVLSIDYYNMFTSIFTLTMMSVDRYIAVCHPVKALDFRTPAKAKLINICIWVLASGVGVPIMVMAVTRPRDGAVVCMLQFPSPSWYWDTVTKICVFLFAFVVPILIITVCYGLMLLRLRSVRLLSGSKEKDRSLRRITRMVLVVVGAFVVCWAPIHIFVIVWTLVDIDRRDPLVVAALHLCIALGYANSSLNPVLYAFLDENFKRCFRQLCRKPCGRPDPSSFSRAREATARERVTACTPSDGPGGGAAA
The experiment in a line: Binding assay, membranes of 293S cells expressing cloned human δ receptor.

The next series addresses T2, HDELTA (Homo sapiens, UniProt P41143).
T2 construct: expressed in transfected cells
Kind of series: Functional agonism HDELTA (EC50, % EMAX). The series is classed as biochemical.

The next series has as its target RAT BRAIN (Rattus norvegicus, UniProt P33533). The experiment in a line: Functional agonism rat brain (EC50, % EMAX). Format: biochemical.
Another series has as its target MOUSE BRAIN (Mus musculus, UniProt P32300). Kind of series: Functional agonism mouse brain (EC50, % EMAX). Format: biochemical.
Series [2] in a line: Metabolic stability MLM (% remaining). The series is classed as in vitro ADME, mouse.
Series [3] can be described thus: Metabolic stability RLM (% remaining). Format: in vitro ADME, rat.
The mark [4] stands for this setting: displacement of radioligand, human δ receptor membranes, read-out: HDELTA.

T2 sequence (P41143 whole entry): as above
Sequence of MOUSE BRAIN (P32300 whole entry): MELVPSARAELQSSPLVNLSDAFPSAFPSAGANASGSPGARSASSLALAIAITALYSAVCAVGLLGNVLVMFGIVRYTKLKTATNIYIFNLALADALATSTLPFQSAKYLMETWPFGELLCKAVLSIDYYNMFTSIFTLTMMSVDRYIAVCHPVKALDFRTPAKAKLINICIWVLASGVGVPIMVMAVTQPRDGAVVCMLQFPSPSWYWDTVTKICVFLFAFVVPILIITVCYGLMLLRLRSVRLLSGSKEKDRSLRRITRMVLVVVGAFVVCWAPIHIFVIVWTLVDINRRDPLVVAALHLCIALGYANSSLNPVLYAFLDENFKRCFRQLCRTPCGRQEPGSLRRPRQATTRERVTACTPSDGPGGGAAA
Sequence of RAT BRAIN (P33533 whole entry): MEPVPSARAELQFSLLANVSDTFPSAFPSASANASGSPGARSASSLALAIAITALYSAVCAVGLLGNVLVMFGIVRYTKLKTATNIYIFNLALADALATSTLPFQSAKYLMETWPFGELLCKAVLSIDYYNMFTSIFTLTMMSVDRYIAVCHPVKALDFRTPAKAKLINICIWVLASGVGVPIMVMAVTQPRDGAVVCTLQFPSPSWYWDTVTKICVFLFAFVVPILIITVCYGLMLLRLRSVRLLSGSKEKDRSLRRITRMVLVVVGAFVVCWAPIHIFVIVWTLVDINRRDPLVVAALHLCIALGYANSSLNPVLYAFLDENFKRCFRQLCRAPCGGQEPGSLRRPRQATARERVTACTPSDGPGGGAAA

The molecule `CCN(CC)C(=O)c1ccc(C(c2cccc3cccnc23)N2CCN(Cc3ncc[nH]3)CC2)cc1.Cl.Cl` (stereo not drawn) [Example 17, N,N-diethyl-4-[[4-(2-imidazolylmethyl)-1-piperazinyl](8-quinolinyl)methyl]benzamide Dihydrochloride] returned an IC50 in series [1] of 1.09 nM. On HDELTA, the EC50 turned out to be 3.03 nM and the Emax amounted to 95.7%. This molecule also displayed an Emax on RAT BRAIN of 106%. This molecule showed an Emax at MOUSE BRAIN of 92.5%. Further, in series [2], the “MLM 10000 % rem.” value is recorded as 0 % rem and the “MLM 100000 % rem.” value came out at 21.5 % rem. For the same molecule, in series [3], the “RLM 10000 % rem.” value is 5.5 % rem and the “RLM 100000 % rem.” value came out at 75 % rem.
Consider `CCN(CC)C(=O)c1ccc(C(c2cccc3cccnc23)N2CCN(Cc3ccccn3)CC2)cc1` (stereo not drawn) [Example 12, N,N-diethyl-4-[[4-(2-pyridinylmethyl)-1-piperazinyl](8-quinolinyl)methyl]benzamide Dihydrochloride], for which the IC50 in series [1] stood at 0.692 nM. At HDELTA, this molecule had an EC50 of 0.76 nM and a maximal effect (Emax) of 97.7%. In addition, the Emax on RAT BRAIN stood at 106%. At MOUSE BRAIN, this molecule yielded an Emax of 91.3%. For the same molecule, in series [2], the “MLM 10000 % rem.” value is reported as 0 % rem and the “MLM 100000 % rem.” value was 53.5 % rem. In series [3], the “RLM 10000 % rem.” value was 21.5 % rem and the “RLM 100000 % rem.” value stood at 66 % rem.
Take `CCN(CC)C(=O)c1ccc(C(c2cccc3cccnc23)N2CCN(Cc3nc[nH]n3)CC2)cc1.Cl.Cl` (stereo not drawn) [Example 19, N,N-diethyl-4-[[4-(3-triazolylmethyl)-1-piperazinyl](8-quinolinyl)methyl]benzamide Dihydrochloride]: the IC50 in series [1] (setting [4]) amounted to 18.8 nM. Besides, the “HDELTA % EMAX” value at HDELTA is recorded as 97.88%. Further, on HDELTA (read-out: HDELTA EC50), the EC50 amounted to 85.2 nM. At RAT BRAIN, the EC50 was found to be 2810 nM and the “RAT BRAIN % EMAX” value was 56.35%. Moreover, on MOUSE BRAIN, the EC50 came out at 1370 nM and the “MOUSE BRAIN % EMAX” value turned out to be 48.68%.
In series [1], `CCN(CC)C(=O)c1ccc(C(c2cccc3cccnc23)N2CCN(Cc3cccs3)CC2)cc1.Cl.Cl` (stereo not drawn) [Example 16, N,N-diethyl-4-[[4-(2-thiophenylmethyl)-1-piperazinyl](8-quinolinyl)methyl]benzamide Dihydrochloride] showed an IC50 of 1.51 nM. On HDELTA, the EC50 was 2.39 nM and the Emax was 99.4%. Moreover, the Emax on RAT BRAIN was determined as 100%. Further, the Emax on MOUSE BRAIN amounted to 98.4%. Also, in series [2], the “MLM 10000 % rem.” value was found to be 0.5 % rem and the “MLM 100000 % rem.” value is reported as 46.5 % rem. Also, in series [3], the “RLM 10000 % rem.” value is listed as 9.5 % rem and the “RLM 100000 % rem.” value amounted to 64.5 % rem.
As to `CCN(CC)C(=O)c1ccc(C(c2cccc3cccnc23)N2CCN(Cc3c[nH]cn3)CC2)cc1` (stereo not drawn) [Example 18, N,N-diethyl-4-[[4-(4-imidazolylmethyl)-1-piperazinyl](8-quinolinyl)methyl]benzamide Dihydrochloride], the IC50 in series [1] (setting [4]) stood at 1.54 nM. Besides, the maximum response (Emax) was found to be 93.8% at HDELTA, 111% on RAT BRAIN and 108% at MOUSE BRAIN. In addition, the EC50 at HDELTA (read-out: HDELTA EC50) was 5.85 nM.
In series [1], `CCN(CC)C(=O)c1ccc(C(c2cccc3cccnc23)N2CCN(Cc3ccco3)CC2)cc1` (stereo not drawn) [Example 14, N,N-diethyl-4-[[4-(2-furanylmethyl)-1-piperazinyl](8-quinolinyl)methyl]benzamide] yielded an IC50 of 0.181 nM. At HDELTA, this molecule displayed an EC50 of 0.76 nM and an Emax of 88.7%. On RAT BRAIN, this molecule came in with an Emax of 102%. Further, the Emax at MOUSE BRAIN was found to be 106%. In addition, in series [2], the “MLM 10000 % rem.” value worked out at 0 % rem and the “MLM 100000 % rem.” value was found to be 49 % rem. Also, in series [3], the “RLM 10000 % rem.” value is recorded as 13.5 % rem and the “RLM 100000 % rem.” value was 84.5 % rem.
On to `CCN(CC)C(=O)c1ccc(C(c2cccc3cccnc23)N2CCN(Cc3ccsc3)CC2)cc1` (stereo not drawn) [Example 13, N,N-diethyl-4-[[4-(3-thienylmethyl)-1-piperazinyl](8-quinolinyl)methyl]benzamide], for which the IC50 in series [1] was 1.03 nM. On HDELTA, this molecule yielded an EC50 of 1.44 nM and an Emax of 101%. In addition, the Emax at RAT BRAIN is 112%. This molecule gave an Emax on MOUSE BRAIN of 113%. For the same molecule, in series [2], the “MLM 10000 % rem.” value is 1.667 % rem and the “MLM 100000 % rem.” value is 71.667 % rem. Further, in series [3], the “RLM 10000 % rem.” value amounted to 10 % rem and the “RLM 100000 % rem.” value is 62.667 % rem.
The molecule `CCN(CC)C(=O)c1ccc(C(c2cccc3cccnc23)N2CCN(Cc3ccoc3)CC2)cc1` (stereo not drawn) [Example 15, N,N-diethyl-4-[[4-(3-furanylmethyl)-1-piperazinyl](8-quinolinyl)methyl]benzamide] returned an IC50 in series [1] of 0.787 nM. At HDELTA, the EC50 came out at 0.79 nM and the Emax is 89%. This molecule came in with an Emax at RAT BRAIN of 109%. The Emax on MOUSE BRAIN is 110%. Also, in series [2], the “MLM 10000 % rem.” value was 0 % rem and the “MLM 100000 % rem.” value is recorded as 68 % rem. For the same molecule, in series [3], the “RLM 10000 % rem.” value was found to be 10 % rem and the “RLM 100000 % rem.” value was found to be 86 % rem.
